Measurements from patent publication EP1149106B1, “4,5-AZOLO-OXINDOLES” (F. HOFFMANN-LA ROCHE AG, priority 1998, dated 2000).

Legend:
[1] = tested on: estrogen receptor negative epithelial breast carcinoma line (MDA-MB-435); test: Cell-based antiproliferative assay (MTT), MDA-MB-435; conditions: Homo sapiens, MDA-MB-435, 120 h, 2000 cells per well, 5 days post addition of test compound, read-out: MDA-MB435 IC50
Method: The estrogen receptor negative epithelial breast carcinoma line (MDA-MB-435) was purchased from American Type Cell Culture Collection (ATCC; Rockville, MD) and was grown in the medium recommended by ATCC. For analysis of the effect of the test compounds on growth of these cells, the cells were plated at 2000 cells per well in a 96-well tissue culture plate, and were incubated overnight at 37°C with 5% CO2. The next day, the test compounds were dissolved in 100% dimethyl sulfoxide (DMSO) to yield a 10 mM stock solution. Each compound was diluted with sterile medium to 1 mM in a sufficient quantity to yield a final concentration of 120 µM. The compounds were then serially diluted in medium with 1.2% DMSO. […] The plates were returned to the incubator, and 5 days post addition of test compound, were analyzed as described below.
3-(4,5-Dimethylthiazole-2-yl)-2,5-diphenyl-2H-tetrazolium bromide (thiazolyl blue; MTT) was added to each well to yield a final concentration of 1 mg/ml. […] Absorbencies were read in a microtiter plate reader (Molecular Dynamics) at a wavelength of 570 nm with a 650 nm reference. Percent inhibition was calculated by subtracting the absorbance of the blank (no cell) wells from all wells, then subtracting the division of the average absorbance of each test duplicate by the average of the controls from 1.00. […]

Cyclin E/CDK2 = molecular target: T1, Cyclin E/CDK2 (Homo sapiens, UniProt P24941); test: CDK2 FlashPlate Assay (Rb phosphorylation, 33P-ATP); format: biochemical; conditions: recombinant human Cyclin E/CDK2, Rb substrate, 25 minutes at room temperature
T1 construct: made in house; host or cells: insect cells
Method: To determine inhibition of CDK2 activity, purified recombinant retinoblastoma (Rb) protein was coated on 96 well FlashPlates (New England Nuclear, Boston, MA). Rb is a natural substrate for phosphorylation by CDK2 (Herwig and Strauss Eurr. J. Biochem., Vol. 246 (1997) pp. 581-601 and references therein). Recombinant active human Cyclin E/CDK2 complexes were partially purified from extracts of insect cells. The active Cyclin E/CDK2 was added to the Rb-coated FlashPlates along with ^33P-ATP and dilutions of test compounds. Plates were incubated for 25 minutes at room temperature with shaking, then washed and counted in the Topcount scintillation counter (Packard Instrument Co., Downers Grove, IL). Dilutions of test compounds were tested in duplicate in each assay. The percent inhibition of Rb phosphorylation, which is a measure of the inhibition of CDK2 activity, was determined according to the following formula: [formula] where "test compound" refers to the average counts per minute of the test duplicates, "nonspecific" refers to the average counts per minute when no Cyclin E/CDK2 was added, and "total" refers to the average counts per minute when no compound was added.

[2] = tested on: colon carcinoma line SW480; test: Cell-based antiproliferative assay (MTT), SW480; conditions: Homo sapiens, SW480, 96 h, 1000 cells per well, 4 days post addition of test compound

- IC50 [1]: < 3.5 µM
- IC50 (Cyclin E/CDK2): < 3.5 µM
- IC50 [2]: < 1 µM
Compound: COc1cc[nH]c1/C=C1\C(=O)Nc2ccc3[nH]c(C)nc3c21 [P, (Z)-8-[(3-Methoxy-1H-pyrrol-2-yl)methylene]-2-methyl-3,6,7,8-tetrahydro-pyrrolo-[3,2-e]benzimidazol-7-one]
